# According to patent US20240285615A1, “MEDICAMENTS COMPRISING GLYCOSIDASE INHIBITORS” (priority 2021, published 2024):
# Where two headings read alike, the source gives them in different places.
# Legend:
# [1] = system: acute glaucoma-induced I/R injury; assay: In vivo treatment efficacy on acute glaucoma induced ischemia-reperfusion (I/R) model; parameters: species or system Sprague-Dawley (SD) rats; settings: SD rats, oral, 7 days after I/R injury
# Method: The efficacy of compound of formula (I) is evaluated in the acute glaucoma animal model. Eight-week-old male Sprague-Dawley (SD) rats weighing 250 to 300 g are housed in a temperature- and humidity-controlled animal room under a 12-hour light/12-hour dark cycle, with food and water provided ad libitum. Before any experiment, animals are allowed for one week of acclimatization. The SD rats are randomly allocated to control group and/or treatment groups. Compound of formula (I) is administrated by oral (gavage) route. Two protocols are considered, where the treatment is initiated 24 hours before or 1 hour after the induction of acute glaucoma-induced I/R injury.
# To induce I/R injury, a general anesthesia is induced via i.p. injection of a mixture of 50 mg/kg of ketamine and 2 mg/kg of xylazine. Corneal analgesia is administered using a drop of topical 0.5% proparacaine hydrochloride ophthalmic solution, and pupillary dilatation is maintained with 0.5% tropicamide and 0.5% phenylephrine. After analgesia and dilation of the pupil, the anterior chamber of the left eye is cannulated with a 30-gauge needle connected to a saline reservoir at 150 cm above the eye, leading to a high intraocular pressure (IOP) of 110 mm Hg. The presence of retinal ischemia is examined by the fundus. The cannulation is lasting 60 minutes. After removing the infusion needle from the anterior chamber, the IOP returns to normal. Antibiotic ophthalmic gel with tobramycin is topically applied to the eye before and after the procedure. The rats are sacrificed 7 days after I/R injury to observe the long-term effect of the compound of formula (I) treatment. After collection, the thickness of the retinas is examined by histological staining (Mayer P, (1896), Mitt. zool. Stn. Neapel., 12, 303). The number of retinal ganglion cells is also quantified by immunohistochemistry. Finally, the function of the retina is also evaluated 7 days after I/R injury by electroretinography (ERG).
# [2] = system: hTauP301L-Tg mouse model of tauopathy; assay: In vivo effect on the hTauP301L-Tg mouse model of tauopathy; settings: hTauP301L-Tg mice
# From the text: Concomitant to the pathology, these mice progressively develop motoric deficits like clasping behaviour accompanied by a diminution of general mobility, and die prematurely at the age of 8-11 months (reMYND unpublished data, Terwel et al., 2005).
# [3] = Phase 1 Part 2: cerebrospinal fluid (CSF) pharmacokinetics after multiple BID doses; format: in vivo, human; settings: for Cmax / AUC / half-life / Tmax: human, oral, CSF; for AUC: read-out: AUC0-tau; for Tmax: median (min, max)
# From the text: Day 1: Twice a day (BID) dosing. Day 2: No dosing. Day 3-11: 9 days of BID dosing. Day 12: one dose in the morning.
# [4] = Summary statistics of steady-state metrics by mathematical modeling of pharmacokinetic data; parameters: species or system human
# From the text: The following summary statistics of steady-state metrics have been determined based on the above experimental results (“Mathematical Modeling of Pharmacokinetic Data”, D. W. A. Bourne, Routledge, 2018): […]
# adults with PSP = assay: Randomized, double-blind, placebo-controlled Phase 2 trial in PSP (Example 8); format: in vivo, human; settings: 75 mg, 150 mg or 300 mg TID PO, 72-week treatment
# [5] = system: kainate-induced seizure rat model; settings: rats, daily oral gavage for 3 consecutive days
# Method: Compound of formula (I) is evaluated in the kainate-induced seizure rat model. Sprague-Dawley rats are treated with intraperitoneal injection of kainate (10 mg/kg) to induce seizure or with saline as vehicle control. […] The onset of status epilepticus (SE) is defined as the time from kainate injection to the occurrence of continuous seizure activity (Racine score 4-5) over a period of 4 h. Four weeks following the administration of kainate, animals undergo EEG surgery for electrodes implantation at the surface of the dura mater. […] Then, the animals receive a daily administration (oral gavage) of compound formula (I) for 3 consecutive days during which, cerebral activity is monitored by EEG recording. Animals are finally sacrificed ninety-six hours (4 days) post-baseline.
# [6] = Compatibility studies and short-term stability studies of drug substance with excipients; format: physicochemical
# From the text: Compound (I) is a drug substance with suitable physical, biopharmaceutical, and chemical characteristics for development of an immediate release capsule formulation. […] The blend powder to be filled into the capsules contains common excipients: microcrystalline cellulose, croscarmellose sodium, colloidal silicon dioxide and magnesium stearate. All ingredients were used in concentrations typical for solid oral formulations. The selection of excipients, for the capsule powder, was based on compatibility studies and short-term stability studies. […] The final DP contains the following excipients for the tablet core: microcrystalline cellulose, povidone, croscarmellose sodium, copovidone, silica colloidal anhydrous and sodium stearyl fumarate. A water-based film coat made from hypromellose, macrogol, titanium dioxide and iron oxide was sprayed onto the core tablets. All ingredients were used in quantities typical for oral solid formulations. The selection of excipients was further backed-up by compatibility studies and short-term stability studies of binary mixtures for key ingredients.
# [7] = both sexes, 250 mg BID, Day 12, elderly subjects, arithmetic mean
# [8] = both sexes, 500 mg BID, Day 12, elderly subjects, arithmetic mean
# [9] = 100 mg BID, Day 12, elderly subjects, N=1
structure (smiles),measurement,setting,value
CC(=O)Nc1nnc(N2CCN([C@@H](C)c3ccc4c(c3)OCO4)CC2)s1 [Compound (I)],number of retinal ganglion cells by immunohistochemistry,[1],increase number of retinal ganglion cells
same,retinal function by electroretinography,[1],improving retinal function
same,thickness of the retina by H&E staining,[1],mitigating the reduction of thickness of the retina
same,extent of neuronal pathology,[2],diminishing the extent of neuronal pathology
same,"motoric function (clasping behaviour, beam walk)",[2],improvement in motoric function
same,survival rate,[2],significant benefit in survival rate
same,blood-brain-barrier penetration (detection in CSF),[3]; Day 12 after multiple doses,penetrated through the blood-brain-barrier
same,Cmax,[3]; [7],92.5 ng/mL
same,AUC,[3]; [7],485 ng·h/mL
same,half-life,"[3]; both sexes, 250 mg BID, Day 12, elderly subjects, arithmetic mean, read-out: t1/2 (converted)",10.3 h
same,Tmax,"[3]; both sexes, 250 mg BID, Day 12, elderly subjects",3 h
same,Cmax,[3]; [8],282 ng/mL
same,AUC,[3]; [8],1400 ng·h/mL
same,half-life,"[3]; both sexes, 500 mg BID, Day 12, elderly subjects, arithmetic mean, read-out: t1/2 (converted)",10.8 h
same,Tmax,"[3]; both sexes, 500 mg BID, Day 12, elderly subjects",2.02 h
same,half-life,"[3]; both sexes, 100 to 500 mg BID, read-out: terminal half-life (t½), range of means",3.9 to 10.7 h
same,Cmax,[3]; [9],46.7 ng/mL
same,AUC,[3]; [9],236 ng·h/mL
same,half-life,"[3]; 100 mg BID, Day 12, elderly subjects, N=1, read-out: t1/2 (converted)",5.78 h
same,Tmax,[3]; [9],4.03 h
same,AUC mean,[4]; BID 125 mg,12589 ng·h/mL
same,AUC median,[4]; BID 125 mg,12388 ng·h/mL
same,Cavg mean,[4]; BID 125 mg,521 ng/mL
same,Cavg median,[4]; BID 125 mg,358 ng/mL
same,Cmax mean,[4]; BID 125 mg,1508 ng/mL
same,Cmax median,[4]; BID 125 mg,1510 ng/mL
same,Cmin mean,[4]; BID 125 mg,139 ng/mL
same,Cmin median,[4]; BID 125 mg,130 ng/mL
same,AUC mean,[4]; BID 250 mg,25763 ng·h/mL
same,AUC median,[4]; BID 250 mg,25044 ng·h/mL
same,Cavg mean,[4]; BID 250 mg,1041 ng/mL
same,Cavg median,[4]; BID 250 mg,720 ng/mL
same,Cmax mean,[4]; BID 250 mg,3027 ng/mL
same,Cmax median,[4]; BID 250 mg,3019 ng/mL
same,Cmin mean,[4]; BID 250 mg,307 ng/mL
same,Cmin median,[4]; BID 250 mg,276 ng/mL
same,AUC mean,[4]; BID 500 mg,52673 ng·h/mL
same,AUC median,[4]; BID 500 mg,52166 ng·h/mL
same,Cavg mean,[4]; BID 500 mg,2178 ng/mL
same,Cavg median,[4]; BID 500 mg,1531 ng/mL
same,Cmax mean,[4]; BID 500 mg,6126 ng/mL
same,Cmax median,[4]; BID 500 mg,6133 ng/mL
same,Cmin mean,[4]; BID 500 mg,654 ng/mL
same,Cmin median,[4]; BID 500 mg,617 ng/mL
same,AUC mean,[4]; TID 75 mg,11072 ng·h/mL
same,AUC median,[4]; TID 75 mg,10887 ng·h/mL
same,Cavg mean,[4]; TID 75 mg,456 ng/mL
same,Cavg median,[4]; TID 75 mg,392 ng/mL
same,Cmax mean,[4]; TID 75 mg,1058 ng/mL
same,Cmax median,[4]; TID 75 mg,1053 ng/mL
same,Cmin mean,[4]; TID 75 mg,109 ng/mL
same,Cmin median,[4]; TID 75 mg,101 ng/mL
same,AUC mean,[4]; TID 150 mg,23204 ng·h/mL
same,AUC median,[4]; TID 150 mg,22835 ng·h/mL
same,Cavg mean,[4]; TID 150 mg,951 ng/mL
same,Cavg median,[4]; TID 150 mg,827 ng/mL
same,Cmax mean,[4]; TID 150 mg,2162 ng/mL
same,Cmax median,[4]; TID 150 mg,2143 ng/mL
same,Cmin mean,[4]; TID 150 mg,257 ng/mL
same,Cmin median,[4]; TID 150 mg,240 ng/mL
same,AUC mean,[4]; TID 300 mg,46780 ng·h/mL
same,AUC median,[4]; TID 300 mg,45869 ng·h/mL
same,Cavg mean,[4]; TID 300 mg,1909 ng/mL
same,Cavg median,[4]; TID 300 mg,1660 ng/mL
same,Cmax mean,[4]; TID 300 mg,4348 ng/mL
same,Cmax median,[4]; TID 300 mg,4298 ng/mL
same,Cmin mean,[4]; TID 300 mg,533 ng/mL
same,Cmin median,[4]; TID 300 mg,499 ng/mL
same,"efficacy, safety and tolerability of the preferred dosage regimen",adults with PSP,"especially effective, safe and well tolerated"
same,"epileptic activity by EEG (number of seizures, seizure duration, interictal spike frequency)",[5],reducing the epileptic activity
same,stability of the drug substance,[6],suitably stable
same,compatibility with excipients,"[6]; capsule powder: microcrystalline cellulose, croscarmellose sodium, colloidal silicon dioxide, magnesium stearate",no incompatibility with the chosen excipients
